Source: patent US3946003A, “Hydroxy substituted phenylglycylamido-3-heterocyclic thiomethyl cephalosporins” (Eli Lilly and Company, priority 1974, dated 1976)
In brackets after ≈: the same amount, converted by molar mass.

Assays:
[1] = system: Escherichia coli; test: Antibacterial activity, MIC by Gradient-plate technique; assay type: cell-based; details: for MIC: read-out: Minimum Inhibitory Concentration
Source text: (§1) The cephalosporin compounds of this invention (Formula I, R1 =H) are orally effective broad spectrum antibiotics which are useful in controlling infections caused by gram-positive and gram-negative bacteria. […] In Table I, below, the antibacterial activity of the compounds of formula I wherein R1 is hydrogen is illustrated. The bacteria are gram-negative bacteria and the activity is presented as minimum inhibitory concentrations in micrograms per milliliter (mcg./ml.). The activity was obtained by the Gradient-plate technique.

[2] = system: Aerobacter aerogenes; test: as above; assay type: cell-based; details: for MIC: Klebsiella aerogenes, read-out: Minimum Inhibitory Concentration
Source text: as §1

[3] = system: Serratia marcescens; test: as above; assay type: cell-based; details: for MIC: read-out: Minimum Inhibitory Concentration
Source text: as §1

[4] = system: Shigella sp.; test: as above; assay type: cell-based; details: for MIC: read-out: Minimum Inhibitory Concentration
Source text: as §1

[5] = system: Salmonella heidelberg; test: as above; assay type: cell-based; details: for MIC: Salmonella enterica, read-out: Minimum Inhibitory Concentration
Source text: as §1

[6] = system: Pseudomonas aeruginosa; test: as above; assay type: cell-based; details: for MIC: read-out: Minimum Inhibitory Concentration
Source text: as §1

[7] = system: Klebsiella pneumoniae; test: as above; assay type: cell-based; details: for MIC: read-out: Minimum Inhibitory Concentration
Source text: as §1

[8] = system: Escherichia coli EC14; test: Oral therapy of experimental infections in mice; assay type: in vivo; details: oral (gavage) at 1 and 5 hours post infection, read-out: Effective Dose (ED50)
Description: (§2) In Table II, the respective effective doses (ED50) for these antibiotics is presented. The data were obtained in mice infected with the indicated microorganism following oral administration of the antibiotics at 1 and 5 hours post infection.
(§3) ^1 mg./kg. × 2 oral doses (gavage) at 1 and 5 hours post

[9] = system: Streptococcus pyogenes C203; test: Oral therapy of experimental infections in mice; assay type: in vivo; details: for ED50: Streptococcus pyogenes C203, mice, oral (gavage) at 1 and 5 hours post infection, read-out: Effective Dose (ED50)
Description: as §2, §3

[10] = system: Proteus mirabilis PR6; test: Oral therapy of experimental infections in mice; assay type: in vivo; details: oral (gavage) at 1 and 5 hours post infection, read-out: Effective Dose (ED50)
Description: as §2, §3

[11] = system: Diplococcus pneumoniae Park I; test: Oral therapy of experimental infections in mice; assay type: in vivo; details: Streptococcus pneumoniae, oral (gavage) at 1 and 5 hours post infection, read-out: Effective Dose (ED50)
Description: as §2, §3

[12] = Duration of antibiotic blood levels in mice after single oral dose (agar disc-plate assay, Sarcina lutea); assay type: in vivo; details: mouse, single oral dose 20 mg./kg.; for concentration at 10 min: 10 min post administration; for concentration at 20 min: 20 min post administration; for concentration at 0.5 h: 30 min post administration; for concentration at 1 h: 60 min post administration; for concentration at 1.5 h: 90 min post administration; for Cmax: read-out: peak blood level; for concentration at 2 h: 120 min post administration
Description: The determinations were carried out in groups of 3 or 4 mice as indicated in the table and the results averaged. At the indicated time intervals post administration, blood samples were withdrawn at the orbital sinus from each mouse in the test group and assayed for the concentration of antibiotic. […]

[13] = physchem; details: 6% dmf

Compound	ED50 [8]	ED50 [9]	ED50 [10]	ED50 [11]	concentration at 10 min [12]	concentration at 20 min [12]	concentration at 0.5 h [12]	concentration at 1 h [12]	concentration at 1.5 h [12]	Cmax [12]	MIC [1]	MIC [2]	MIC [3]	MIC [4]	MIC [5]	MIC [6]	MIC [7]	concentration at 2 h [12]	other results
7β-(D-4-hydroxyphenylglycylamido)-3-(1-methyl-1H-tetrazole-5-ylthiomethyl)-3-cephem-4-carboxylic acid																			Minimum Inhibitory Concentration [1]: 0.9 µg/mL; Minimum Inhibitory Concentration [2]: 0.9 µg/mL; Minimum Inhibitory Concentration [3]: 5.0 µg/mL; Minimum Inhibitory Concentration [4]: 0.8 µg/mL; Minimum Inhibitory Concentration [5]: 0.8 µg/mL; Minimum Inhibitory Concentration [6]: 120 µg/mL; Minimum Inhibitory Concentration [7]: 0.6 µg/mL
Cc1nnc(SCC2=C(C(=O)O)N3C(=O)C(NC(=O)C(N)c4ccccc4)C3SC2)s1 (stereo not drawn) [compound 4, reference compound]	6.9 mg/kg	1.15 mg/kg	20.7 mg/kg	5.2 mg/kg	1.98 µg/mL	3.38 µg/mL	3.99 µg/mL	2.34 µg/mL	1.61 µg/mL	~4 µg/mL									
Cn1nnnc1SCC1=C(C(=O)O)N2C(=O)[C@@H](NC(=O)[C@H](N)c3ccc(O)cc3)[C@H]2SC1 [compound 1, 7β-(4-hydroxyphenylglycylamido)-3-(1-methyl-1H-tetrazole-5-ylthiomethyl)-3-cephem-4-carboxylic acid]	3.7 mg/kg	0.18 mg/kg	< 4.5 mg/kg	< 1.1 mg/kg	2.56 µg/mL	5.78 µg/mL	8.55 µg/mL	8.88 µg/mL	6.94 µg/mL	~8.9 µg/mL	1 mg/L (≈ 2.09 µM)	0.7 mg/L (≈ 1.47 µM)	12.5 mg/L (≈ 26.2 µM)	0.8 mg/L (≈ 1.68 µM)	0.6 mg/L (≈ 1.26 µM)	> 200 mg/L	1 mg/L (≈ 2.09 µM)	5.36 µg/mL	
Cc1nnc(SCC2=C(C(=O)O)N3C(=O)[C@@H](NC(=O)[C@H](N)c4ccc(O)cc4)[C@H]3SC2)s1 [compound 3, 7β-(D-4-hydroxyphenylglycylamido)-3-(5-methyl-1,3,4-thiadiazol-2-ylthiomethyl)-3-cephem-4-carboxylic acid]	2.1 mg/kg	0.08 mg/kg	< 4.5 mg/kg	< 1.1 mg/kg	10.6 µg/mL	13.2 µg/mL	13.9 µg/mL	14.3 µg/mL	9.8 µg/mL	~14.3 µg/mL	2.5 mg/L (≈ 5.06 µM)	1 mg/L (≈ 2.03 µM)	47.5 mg/L (≈ 96.2 µM)	2 mg/L (≈ 4.05 µM)	1 mg/L (≈ 2.03 µM)	> 200 mg/L	1 mg/L (≈ 2.03 µM)	5.2 µg/mL	ED50 times lower than that exhibited by compound No. 4 ([9]; S. pyogenes infections in mice, 1.15/0.08): approximately 14 times; ED50 times lower than that exhibited by compound No. 2 ([9]; S. pyogenes infections in mice, 4.05/0.08): approximately 50 times; pKa ([13]; pKa (first)): 4.4; pKa ([13]; pKa (second)): 7.6; pKa ([13]; pKa (third)): 12.2
Cn1nnnc1SCC1=C(C(=O)O)N2C(=O)C(NC(=O)C(N)c3ccccc3)C2SC1 (stereo not drawn) [compound 2, reference compound]	8.4 mg/kg	4.05 mg/kg			0.26 µg/mL	0.75 µg/mL	1.17 µg/mL	0.89 µg/mL	1.09 µg/mL	~1.2 µg/mL									
